This is an account of results in patent US20250082720A1, “NEW PEPTIDE AND USES THEREOF” (Neo Cremar Co., Ltd., priority 2021, published 2025).

Test [1] concerns gastrocnemius muscle of C57BL/6 mice. Nature of the test: Myoregeneration after Ac-MIF2-NH2 injection and cardiotoxin (CTX) muscle injury. The test is classed as in vivo, mouse. From the text:
The male C57BL/6 mice were purchased from Dae Han Bio Link Co., Ltd., four of which per cage were kept in a temperature-controlled room with a 12-hour light cycle. The animals were fed with a standard rodent diet containing 4.0% (wt/wt) total fat (Rodent NIH-31 Open Formula Auto; Zeigler Bros., Inc., Gardners, PA, USA) and water. All experiments involving animals complied with the guidelines (YUMC-AEC2015-006) issued by the Animal Control Committee of Youngnam University's Animal Research Institute. The MSTN knock-out mouse was provided by a laboratory at Seoul National University. Normal, MSTN+/−(heterozygous), and MSTN−/−(homozygous) adipose tissues were fixed by collecting from 6-week-old mice and stored at −80° C. until required for analysis.
Muscle tissues containing paraffin was subjected to deparaffinization with xylene and ethanol and hydration, respectively, and the tissue was soaked in 0.3% hydrogen peroxide water (H2O2)/methanol for 15 minutes to stop endogenous peroxidase activity. Then, tissues were stained with hematoxylin/eosin for morphological observation or reacted with 1% normal goat serum at room temperature for 1 hour to block a reaction with non-specific antibodies, followed by a reaction with the primary antibody (1:50) at 4° C. for over 16 hours. After 16 hours, washing was performed 3 times with PBS, followed by a reaction with secondary antibody (1:100) with HRP conjugated at room temperature for 1 hour. Horse radish peroxidase-conjugated streptavidin was added to detect the expression of the protein, followed by observation under a microscope.
In order to observe the myoregeneration effect following MIF peptide injection, mice were injected with Ac-MIF2-NH2 peptide and injected/uninjected with cardiotoxin (hereinafter referred to as CTX) into the muscle, followed by observation of the morphology and regeneration of the muscle. A day after C57BL/6 mice were injected with Ac-MIF2-NH2 peptide (1.125 mM), […] cardiotoxin was injected into the gastrocnemius. Muscle tissues were sampled 7 days after CTX injection.
Paraffin-embedded muscle sections were deparaffinized using xylene, rehydrated using a concentration gradient of ethanol, stained with hematoxylin and eosin, observed under an optical microscope, magnified at 400× scale, and photographed, followed by measurement of the diameter of muscle fibers using Image J software.

Test [2] concerns 3T3L1 cells. Nature of the test: 3T3L1 cell proliferation (MTT method). The test is classed as cell-based, mouse. The settings on record: 3T3L1, peptide 1000 nM, 2 days, FIG. 13A. The method, then:
3T3L1 cells, mouse fibroblasts, were cultured in Dulbecco's Modified Eagle's Medium (DMEM)+10% fetal bovine serum (FBS)+1% penicillin/streptomycin (P/S). To validate the effect of MIF peptide, 3T3L1 cells (2×10^3 cells/ml) were placed in a 12-well cell culture dish, attached for 24 hours, and treated with MIF peptide (1000 nM) for 2 days, followed by observation of cell proliferation by MTT method. The medium was replaced once every 2 days, and the cells were cultured at 37° C.
To validate cell proliferation, the culture medium of the cells was removed, the cells were washed with DMEM, 500 μl of MTT reagent (0.5 mg/ml) dissolved in phosphate buffered saline (PBS) was added to each well, and the cells were left at 37° C. for 1 hour. The reaction solution was removed, and 1000 μl of DMSO was added to each well. Purple formazan crystals were completely dissolved in DMSO, and the absorbance was measured at 540 nm.
Background: Formazan colour is commonly taken as a measure of viable cells.

Test [3] has as its system 3T3L1 cells. Nature of the test: Expression of FMOD, MSTN and lipogenesis-related factors in 3T3L1 cells (real-time PCR, Western blot). The test is classed as cell-based, mouse. The settings on record: 3T3L1, compared to untreated cells, FIG. 13C. The method, then:
After adding 1 ml of TRIzol™ reagent, the cells were crushed using a sonicator. After centrifugation of the crushed sample (12,000 rpm, 10 min, 4° C.), the supernatant was transferred to a new tube, added with 200 μl of chloroform, and left at room temperature for 10 minutes. After 10 minutes, centrifugation (12,000 rpm, 10 min, 4° C.) was performed, yielded a transparent supernatant. Next, 500 μl of isopropanol was added, the mixture was left for 10 minutes, and centrifugation was performed to obtain RNA pellets. […] Total RNA volume was measured by nanodrop, and the 18s and 28s bands were detected in 1.2% agarose gel. cDNA was synthesized with 2 μg of total RNA, random hexamer primers, and reverse transcriptase (25° C.: 10 min, 37° C.: 120 min, 85° C.: 5 min).
Real-time PCR (RT-PCR) was performed for detecting gene expression. For observation of real-time gene expression, gene expression was analyzed using the Power SYBR Green PCR Master Mix, which includes fluorescent materials of SYBR green (7500 Real-time PCR system). […] Gene expression values were analyzed through the analysis of c(t) values obtained through real-time PCR analysis (fold change 2-ΔΔCt formula). Setting the gene expression value of the untreated cells to 1, the gene expression value of the treated cells was calculated. […]
In general terms: Real-time PCR tracks product formation cycle by cycle.

The mark [4] stands for this setting: injected muscle, 7 days after CTX, FIG. 10B.

Regarding “Ac-VDFEAGDWFW-NH2 [Ac-MIF2-NH2, MIF2 peptide with acetylated N-terminus and amidated C-terminus]”, the “muscle weight compared to muscle without injection” value in test [1] (7 days after CTX injection) was “no significant difference”. In test [1] (7 days after CTX, FIG. 10C), the “diameter of the muscle fibers compared to muscles without injection” value was “increased”. In test [1] (CTX + Ac-MIF2-NH2, 7 days after CTX injection), the muscle weight came out at 0.147 ± 0.163 g. Besides, in test [1] (injected muscle, 7 days after CTX, FIG. 10A), the “mRNA expression of Pax7, MYOD, MYOG, MYL2, and MYH in muscle” value was “significantly increased”. For the same substance, in test [1] (setting [4]), the “MSTN protein expression in muscle” value is given as “decreased”; the “protein expression of Pax7, MYOD, MYOG, MYL2, and MYH in muscle” value is given as “increased”. Moreover, the “decrease in proliferation compared to cells without peptide treatment” value in test [2] came out at 10%. For the same substance, the “expression of FMOD; MSTN; and lipogenesis-related mRNAs and proteins (CD36, CD163, and PPARγ)” value in test [3] is listed as “decreased”.
